Measured values taken from patent publication US9597295B2, “Diene compounds for use in human epidermal cell repair, and pharmaceutical and cosmetic compositions containing them” (GIULIANI S.P.A., priority 2009, dated 2017).

What was measured:
IL-1α = IL-1α quantification in the growth medium using ELISA; assay type: cell-based, human; details: RHE growth medium, 0.1% single dose, after 24 h
Method: The release of IL-1α was assayed in 200 μl of the growth medium underneath the RHE at preset sampling times using a highly-sensitive, specific ELISA (enzyme-linked immunosorbent assay) kit according to the manufacturer's instructions. The end-product was quantified at 450 nm.
The underlying growth medium for each RHE was collected immediately after the recovery time and stored at −20° C. in plastic cryo-vials.
Before the test, the medium was conditioned at room temperature. The results were expressed as pg/ml of IL-1α. Concentrations between 3.9 and 250 pg/ml were considered within the range of sensitivity.

[1] = tested on: reconstructed human epidermis (RHE); assay: H&E histology of reconstructed human epidermis; assay type: cell-based; details: single acute administration at 0.1%
Excerpt: (§1) The RHE (SkinEthic®) 0.5 cm^2, which reproduces the morphology of the epidermis, was accurately characterised: a fully-differentiated epidermis develops after 17 days of airlift culture of NHK (normal human keratinocytes) from skin biopsies in a given medium (MCDB153).
At the end of the study period, the tissues were washed with PBC, fixed in 10% buffered formalin and prepared for histological examination.
The tissue was embedded in paraffin blocks and cut into sections (3-5μ thick) on a microtome. The sections were then transferred to slides, deparaffinised and rehydrated, then stained with haematoxylin and eosin (H&E).
The samples for histology were analysed under the microscope. The overall morphology and any changes by comparison with the negative controls were assessed and recorded in the laboratory report.
The samples for histology were analysed under the Leica microscope DM2500 and recorded using the Leica Application Suite (LAS) software.

cK-14 (KRT 14) mRNA = assay: cK-14 mRNA expression by real-time PCR in reconstructed human epidermis; assay type: cell-based; details: RHE, 0.1%, during the whole study, by comparison with the controls
Method: as §1
(§2) On arrival, the RHE (day 11) were removed from the agarose nutrient solution under a flow of sterile air. The inserts were rapidly plated in six-well plates previously filled with 1 ml of growth medium each at 37° C., […], and 90% relative humidity, taking care to avoid any formation of bubbles underneath the insert.
The substances tested were solubilised in DMSO (Sigma) to obtain a final concentration of 0.2%. […]
(§3) The “Applied Biosystems 7500 real-time PCR” instrument uses PCR chemistry based on fluorescence, the TaqMan assay.
This technique uses Taqman probes to identify the fluorescent signal: it is highly sensitive and consists in amplifying and quantifying a specific nucleic acid sequence. The PCR product is detected in real time. The DNA, cDNA or RNA are quantified by determining the cycle in which the PCR product can be identified first, and therefore not when the reaction has reached saturation. The product is quantified by detecting the fluorescence measured in each cycle: the entity of the signal is directly proportional to the quantity of product amplified. […]

cK-10 = cK-10 immunohistochemical expression in the RHE (separate study); assay type: cell-based, human; details: day 17 of differentiation, versus untreated controls
Excerpt: Finally, in a separate study conducted using similar methods, the expression of cK-10 in the RHE was studied on days 15 and 17 of differentiation, recorded by its immunohistochemical expression. cK-10 is a marker of the terminal differentiation of the keratinocytes at granular and spinal level.

cK-19 (KRT19) mRNA = assay: cK-19 mRNA expression by real-time PCR in reconstructed human epidermis; assay type: cell-based; details: RHE, single 20 μl dose at 0.1%
Method: as §1, §2
The substances tested were solubilised in DMSO (Sigma) to obtain a final concentration of 0.2%.
This stock solution was diluted in PBS to achieve the 0.1% of active principle.
The solution was applied with care to each tissue using a micro-pipette in a single dose of 20 μl.
The method is based on the capacity of the glass fibres to bind the nucleic acid in chaotropic concentrated saline solutions. The samples are disrupted in a highly-concentrated solution of guanidinium salts that lyse the cells and inactivate the endogenous RNase. The lysate is diluted with ethanol to make the […] competent for binding with the glass fibre of the filter in the filter cartridge. The RNA binds to the filter, while the other cell components slide freely through the filter. The filter is then washed three times and the RNA is eluted in a solution with a very low ionic strength.
The rationale in this method is based on the use of random primers to begin cDNA synthesis that ensure an efficient synthesis of the first helix of all the RNA molecules present.
as §3
This technique uses Taqman probes to identify the fluorescent signal: it is highly sensitive and consists in amplifying and quantifying a specific nucleic acid sequence. The PCR product is detected in real time. The DNA, cDNA or RNA are quantified by determining the cycle in which the PCR product can be identified first, and therefore not when the reaction has reached saturation. The product is quantified by detecting the fluorescence measured in each cycle: the entity of the signal is directly proportional to the quantity of product amplified.
The relative quantification is measured from the difference between the expression of the nucleic acid sequence of a sample being tested and the same sequence in the calibration sample.
Each biological sample was processed in triplicate. The Taqman gene expression assay and cDNA (25 ng) were added to the “2× TaqMan Universal PCR Master Mix”, making up to a total volume of 25 μl.
The tissues were homogenised in 300 μl of lysis buffer for […] extraction.
On day 1, the RHE were 12 days old. The substances being tested (in duplicate) and the controls were applied in a single dose (20 μl). The RHE were then incubated without further treatment for 24 hours.

[2] = 24 hours of treatment, day 13, calibrated to DMSO controls
[3] = 48 hours of treatment, day 15, by comparison with the PBS control
[4] = 120 hours of treatment, day 17 (final differentiation), by comparison with the controls

| release of IL-1α (IL-1α) | Compound | toxicity (histomorphological analysis, cK-16 expression, IL-1α release) [1] | cK-14 expression (marker of mitotic activity) (cK-14 (KRT 14) mRNA) | cK-10 immunohistochemical expression (cK-10) | cK-19 mRNA gene expression (cK-19 (KRT19) mRNA; [2]) | cK-19 mRNA gene expression (cK-19 (KRT19) mRNA; [3]) | cK-19 mRNA gene expression (cK-19 (KRT19) mRNA; [4]) |
| --- | --- | --- | --- | --- | --- | --- | --- |
| no such release | C/C=C/C=C/C=C/CO [PRT, 2E,4E,6E-Octatrien-1-ol] | toxicity similar for retinol and 2,4,6-octatrien-1-ol |  |  |  |  |  |
| early but very low release | CC1=C(/C=C/C(C)=C/C=C/C(C)=C/CO)C(C)(C)CCC1 [RET, Retinol] | toxicity similar for retinol and 2,4,6-octatrien-1-ol | did not differ significantly | negative | regulation level resembling the values of the calibrator | diminished | up-regulation |
| no such release | C/C=C/C=C/C=C/C(=O)OCC [DPRT, 2E,4E,6E-Octa-2,4,6-trienoic acid ethyl ester] | no relevant signs of toxicity |  |  | much diminished | not diminished | up-regulation |
